# Data published in US20250243196A1, “CITRON KINASE INHIBITORS” (The Cleveland Clinic Foundation, priority 2021, published 2025).
# Like-named read-outs stand apart in the source and are kept apart here.
# Key:
# [1] = tested on: NCI-60 human tumor cell line panel; test: NCI-60 human tumor cell line screen (GI50); type: cell-based
# PRK1(h) = PRK1(h) (Homo sapiens (Human), UniProt Q16512); test: KinaseProfiler panel; type: biochemical; set-up: dose or concentration left out as unconfirmed; settings: activity remaining
# Chain of PRK1(h) (Q16512 whole entry): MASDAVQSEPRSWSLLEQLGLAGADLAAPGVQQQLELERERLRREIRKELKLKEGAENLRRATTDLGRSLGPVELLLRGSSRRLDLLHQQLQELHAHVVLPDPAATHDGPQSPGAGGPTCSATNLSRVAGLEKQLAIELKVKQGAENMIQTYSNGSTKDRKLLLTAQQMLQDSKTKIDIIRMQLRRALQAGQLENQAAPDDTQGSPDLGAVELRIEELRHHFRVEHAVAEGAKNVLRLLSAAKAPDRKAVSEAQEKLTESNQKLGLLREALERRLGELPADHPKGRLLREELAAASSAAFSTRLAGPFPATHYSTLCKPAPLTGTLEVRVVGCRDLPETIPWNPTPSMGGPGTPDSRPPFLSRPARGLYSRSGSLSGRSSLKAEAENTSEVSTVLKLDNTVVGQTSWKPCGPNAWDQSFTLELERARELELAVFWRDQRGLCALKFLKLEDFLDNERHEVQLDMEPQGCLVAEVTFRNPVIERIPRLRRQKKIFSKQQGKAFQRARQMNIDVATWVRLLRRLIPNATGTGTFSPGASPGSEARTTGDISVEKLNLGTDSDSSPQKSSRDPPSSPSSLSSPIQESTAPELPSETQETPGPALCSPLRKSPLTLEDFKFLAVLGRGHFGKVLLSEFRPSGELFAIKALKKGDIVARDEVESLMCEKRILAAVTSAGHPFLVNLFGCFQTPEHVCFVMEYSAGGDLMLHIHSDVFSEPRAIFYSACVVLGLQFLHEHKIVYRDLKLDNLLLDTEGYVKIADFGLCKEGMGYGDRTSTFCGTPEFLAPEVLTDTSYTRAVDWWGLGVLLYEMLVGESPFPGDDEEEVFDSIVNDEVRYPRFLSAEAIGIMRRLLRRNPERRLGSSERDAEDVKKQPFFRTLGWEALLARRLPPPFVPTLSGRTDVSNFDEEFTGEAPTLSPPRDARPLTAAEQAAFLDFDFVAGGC
# CDK4/cyclinD3(h) = CDK4/cyclinD3(h) (Homo sapiens (Human), UniProt P11802); test: KinaseProfiler panel; type: biochemical; set-up: dose or concentration left out as unconfirmed; settings: activity remaining
# Chain of CDK4/cyclinD3(h) (P11802 whole entry): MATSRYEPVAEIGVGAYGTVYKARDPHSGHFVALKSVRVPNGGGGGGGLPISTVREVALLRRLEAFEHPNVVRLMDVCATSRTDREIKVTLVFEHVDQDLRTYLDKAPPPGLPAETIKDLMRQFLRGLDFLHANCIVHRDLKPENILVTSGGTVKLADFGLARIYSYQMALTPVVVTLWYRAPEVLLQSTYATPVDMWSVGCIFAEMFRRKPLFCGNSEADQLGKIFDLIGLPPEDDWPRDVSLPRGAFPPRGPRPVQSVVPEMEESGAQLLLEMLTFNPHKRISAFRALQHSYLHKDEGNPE
# Chain of CDK4/cyclinD3(h) (P30281 whole entry partner): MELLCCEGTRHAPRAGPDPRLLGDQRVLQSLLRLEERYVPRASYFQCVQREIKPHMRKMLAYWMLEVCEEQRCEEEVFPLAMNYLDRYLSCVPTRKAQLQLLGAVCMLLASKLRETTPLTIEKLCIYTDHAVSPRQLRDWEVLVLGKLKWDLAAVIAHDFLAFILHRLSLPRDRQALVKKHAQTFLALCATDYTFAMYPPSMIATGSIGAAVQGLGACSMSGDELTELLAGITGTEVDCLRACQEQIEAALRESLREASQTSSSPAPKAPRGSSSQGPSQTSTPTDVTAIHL
# PKCι(h) = PKCι(h) (Homo sapiens (Human), UniProt P41743); test: KinaseProfiler panel; type: biochemical; set-up: dose or concentration left out as unconfirmed; settings: activity remaining
# Chain of PKCι(h) (P41743 whole entry): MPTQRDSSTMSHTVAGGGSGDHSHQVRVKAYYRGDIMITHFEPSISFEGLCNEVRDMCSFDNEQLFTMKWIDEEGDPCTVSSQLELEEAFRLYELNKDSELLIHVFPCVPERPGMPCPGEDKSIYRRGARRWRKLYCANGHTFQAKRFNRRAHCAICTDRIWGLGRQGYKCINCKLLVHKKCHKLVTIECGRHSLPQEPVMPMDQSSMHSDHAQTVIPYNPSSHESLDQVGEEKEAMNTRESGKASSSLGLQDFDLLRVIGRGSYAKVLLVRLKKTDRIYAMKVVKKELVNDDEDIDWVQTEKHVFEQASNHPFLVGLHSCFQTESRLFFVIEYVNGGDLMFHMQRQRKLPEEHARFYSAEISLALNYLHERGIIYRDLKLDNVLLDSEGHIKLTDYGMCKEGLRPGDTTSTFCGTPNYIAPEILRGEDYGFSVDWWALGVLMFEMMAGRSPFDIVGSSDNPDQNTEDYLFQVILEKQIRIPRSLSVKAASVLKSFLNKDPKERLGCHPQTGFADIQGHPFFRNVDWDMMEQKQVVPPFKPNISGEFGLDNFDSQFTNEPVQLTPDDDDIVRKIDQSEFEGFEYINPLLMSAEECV
# ROCK-2 = ROCK-2 (Homo sapiens (Human), UniProt O75116); test: KinaseProfiler radiometric assay (14-451KP); type: biochemical; settings: mean of at least two independent experiments
# Chain of ROCK-2 (O75116 whole entry): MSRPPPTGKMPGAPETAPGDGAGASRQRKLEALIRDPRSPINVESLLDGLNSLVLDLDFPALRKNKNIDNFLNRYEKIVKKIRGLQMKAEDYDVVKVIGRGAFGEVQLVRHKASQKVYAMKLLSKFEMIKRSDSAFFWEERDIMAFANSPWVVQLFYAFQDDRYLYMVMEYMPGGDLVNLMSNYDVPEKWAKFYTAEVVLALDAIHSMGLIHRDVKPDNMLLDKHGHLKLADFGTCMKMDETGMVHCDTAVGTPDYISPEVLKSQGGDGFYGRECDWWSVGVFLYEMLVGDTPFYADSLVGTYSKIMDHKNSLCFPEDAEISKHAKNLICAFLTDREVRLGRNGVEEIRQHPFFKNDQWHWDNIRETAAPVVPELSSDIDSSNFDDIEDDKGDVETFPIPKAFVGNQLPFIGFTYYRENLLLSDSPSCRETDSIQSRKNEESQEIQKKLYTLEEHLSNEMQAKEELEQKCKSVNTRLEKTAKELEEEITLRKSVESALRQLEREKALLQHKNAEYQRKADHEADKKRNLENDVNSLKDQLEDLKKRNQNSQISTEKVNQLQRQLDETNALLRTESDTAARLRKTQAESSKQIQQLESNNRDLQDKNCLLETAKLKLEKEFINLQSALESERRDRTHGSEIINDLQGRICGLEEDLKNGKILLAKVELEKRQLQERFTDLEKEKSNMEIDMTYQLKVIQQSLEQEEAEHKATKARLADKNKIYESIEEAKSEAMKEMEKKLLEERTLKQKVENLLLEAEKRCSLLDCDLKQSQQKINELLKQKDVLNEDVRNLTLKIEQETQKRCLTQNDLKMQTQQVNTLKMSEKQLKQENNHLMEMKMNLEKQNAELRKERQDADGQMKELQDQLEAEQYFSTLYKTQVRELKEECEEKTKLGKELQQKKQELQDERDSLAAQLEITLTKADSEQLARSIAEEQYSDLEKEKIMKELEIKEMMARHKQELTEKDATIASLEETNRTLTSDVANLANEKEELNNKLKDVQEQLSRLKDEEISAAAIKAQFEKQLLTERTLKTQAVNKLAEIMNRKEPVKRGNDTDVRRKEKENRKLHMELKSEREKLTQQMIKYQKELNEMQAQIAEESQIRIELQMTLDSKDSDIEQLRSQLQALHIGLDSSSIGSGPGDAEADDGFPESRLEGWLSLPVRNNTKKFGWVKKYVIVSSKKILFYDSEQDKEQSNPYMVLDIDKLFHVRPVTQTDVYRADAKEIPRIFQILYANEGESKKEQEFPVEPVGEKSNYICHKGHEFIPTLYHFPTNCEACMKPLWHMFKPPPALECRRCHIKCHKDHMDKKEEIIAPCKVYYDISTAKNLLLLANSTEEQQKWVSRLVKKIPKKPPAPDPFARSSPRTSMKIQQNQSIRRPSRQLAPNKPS
# Description: In another aspect, disclosed is a method of inhibiting citron kinase in a sample, comprising contacting the sample with a compound described herein (e.g., a compound of formula (I) or a pharmaceutically acceptable salt thereof), or a pharmaceutical composition described herein (e.g., a pharmaceutical composition comprising a compound of formula (I) or a pharmaceutically acceptable salt thereof), in an amount effective to inhibit citron kinase. In some embodiments, the step of contacting the sample with the compound comprises administering the compound to a subject (e.g., a subject) suffering from cancer. Methods of determining kinase inhibition are well known in the art. For example, kinase activity of an enzyme and the inhibitory capacity of a test compound can be determined by measuring enzyme specific phosphorylation of a substrate. Commercial assays and kits can be employed. For example, kinase inhibition can be determined using a radiometric binding assay, such as using KinaseProfiler™ technology (Eurofins Discovery). This assay method directly detects product formation without the use of modified substrates or coupling enzymes. Test compounds are incubated with kinase, substrate, required cofactors and radioisotope labeled ATP. Following incubation, unreacted radioactive ATP is removed by washing and incorporation of the radiolabeled phosphate into the kinase substrate is assayed to detect phosphoryltransferase activity, which is directly proportional to the amount of phosphorylated substrate. Inhibition of the kinase by a kinase inhibitor prevents phosphorylation of the substrate and thereby limits the incorporation of radiolabeled phosphate. Such an assay is compatible with a microwell assay format, allowing simultaneous determination of IC50 of multiple compounds.
# The effect of various compounds on the inhibition of other kinases has also been determined. Table 2 reports measured IC50 values; value units are nanomolar inhibition.
smiles,measurement,setting,value
"Cc1cc2c(-c3ccc(NC(=O)[C@H](N)CC(C)(C)C)cc3C)ccnc2[nH]1 [Compound F-90, (2R)-2-Amino-4,4-dimethyl-N-[3-methyl-4-(2-methyl-1H-pyrrolo[2,3-b]pyridin-4-yl)phenyl]pentanamide]",GI50,"[1]; Homo sapiens, SF-539, SF-539, CNS Cancer, read-out: GI50",8 µM
same,GI50,"[1]; Homo sapiens, SK-MEL-2, SK-MEL-2, Melanoma, read-out: GI50",14 µM
same,GI50,"[1]; Homo sapiens, SK-MEL-5, SK-MEL-5, Melanoma, read-out: GI50",2.5 µM
same,GI50,"[1]; Homo sapiens, SK-MEL-28, SK-MEL-28, Melanoma, read-out: GI50",8.5 µM
same,GI50,"[1]; Homo sapiens, SK-OV-3, SK-OV-3, Ovarian Cancer, read-out: GI50",12.4 µM
same,GI50,"[1]; Homo sapiens, SN12C, Renal Cancer, read-out: GI50",11.1 µM
same,GI50,"[1]; Homo sapiens, SNB-19, SNB-19, CNS Cancer, read-out: GI50",11.3 µM
same,GI50,"[1]; Homo sapiens, SNB-75, SNB-75, CNS Cancer, read-out: GI50",4.7 µM
same,GI50,"[1]; Homo sapiens, SR, Leukemia, read-out: GI50",2.1 µM
same,GI50,"[1]; Homo sapiens, SW-620, SW-620, Colon Cancer, read-out: GI50",5.6 µM
same,GI50,"[1]; Homo sapiens, T47D, T-47D, Breast Cancer, read-out: GI50",6.7 µM
same,GI50,"[1]; Homo sapiens, TK-10, TK-10, Renal Cancer, read-out: GI50",12.6 µM
same,GI50,"[1]; Homo sapiens, U-251, U251, CNS Cancer, read-out: GI50",6 µM
same,GI50,"[1]; Homo sapiens, UACC-62, UACC-62, Melanoma, read-out: GI50",8.6 µM
same,GI50,"[1]; Homo sapiens, UACC-257, UACC-257, Melanoma, read-out: GI50",10.5 µM
same,GI50,"[1]; Homo sapiens, UO-31, UO-31, Renal Cancer, read-out: GI50",4.6 µM
same,GI50,"[1]; IGROV1, Ovarian Cancer",−4.915 Log(M)
same,GI50,"[1]; K-562, Leukemia",−5.551 Log(M)
same,GI50,"[1]; KM12, Colon Cancer",−5.215 Log(M)
same,GI50,"[1]; LOX IMVI, Melanoma",−5.211 Log(M)
same,GI50,"[1]; M14, Melanoma",−4.959 Log(M)
same,GI50,"[1]; MALME-3M, Melanoma",−4.992 Log(M)
same,GI50,"[1]; MCF7, Breast Cancer",−5.256 Log(M)
same,GI50,"[1]; MDA-MB-231/ATCC, Breast Cancer",−5.129 Log(M)
same,GI50,"[1]; MDA-MB-435, Breast Cancer",−5.155 Log(M)
same,GI50,"[1]; MDA-MB-468, Breast Cancer",−5.564 Log(M)
same,GI50,"[1]; MOLT-4, Leukemia",−5.329 Log(M)
same,GI50,"[1]; NCI-H23, Non-Small Cell Lung Cancer",−4.915 Log(M)
same,GI50,"[1]; NCI-H226, Non-Small Cell Lung Cancer",−4.971 Log(M)
same,GI50,"[1]; NCI-H322M, Non-Small Cell Lung Cancer",−4.845 Log(M)
same,GI50,"[1]; NCI-H460, Non-Small Cell Lung Cancer",−5.245 Log(M)
same,GI50,"[1]; NCI-H522, Non-Small Cell Lung Cancer",−4.887 Log(M)
same,GI50,"[1]; NCI/ADR-RES, Breast Cancer",−4.873 Log(M)
same,GI50,"[1]; OVCAR-3, Ovarian Cancer",−4.937 Log(M)
same,GI50,"[1]; OVCAR-4, Ovarian Cancer",−5.158 Log(M)
same,GI50,"[1]; OVCAR-5, Ovarian Cancer",−4.982 Log(M)
same,GI50,"[1]; OVCAR-8, Ovarian Cancer",−4.867 Log(M)
same,GI50,"[1]; PC-3, Prostate Cancer",−5.102 Log(M)
same,GI50,"[1]; RPMI-8226, Leukemia",−5.557 Log(M)
same,GI50,"[1]; RXF 393, Renal Cancer",−5.434 Log(M)
same,GI50,"[1]; SF-268, CNS Cancer",−4.953 Log(M)
same,GI50,"[1]; SF-295, CNS Cancer",−5.079 Log(M)
same,GI50,"[1]; SF-539, CNS Cancer",−5.098 Log(M)
same,GI50,"[1]; SK-MEL-2, Melanoma",−4.853 Log(M)
same,GI50,"[1]; SK-MEL-5, Melanoma",−5.609 Log(M)
same,GI50,"[1]; SK-MEL-28, Melanoma",−5.072 Log(M)
same,GI50,"[1]; SK-OV-3, Ovarian Cancer",−4.905 Log(M)
same,GI50,"[1]; SN12C, Renal Cancer",−4.953 Log(M)
same,GI50,"[1]; SNB-19, CNS Cancer",−4.945 Log(M)
same,GI50,"[1]; SNB-75, CNS Cancer",−5.326 Log(M)
same,GI50,"[1]; SR, Leukemia",−5.682 Log(M)
same,GI50,"[1]; SW-620, Colon Cancer",−5.250 Log(M)
same,GI50,"[1]; T-47D, Breast Cancer",−5.174 Log(M)
same,GI50,"[1]; TK-10, Renal Cancer",−4.901 Log(M)
same,GI50,"[1]; U251, CNS Cancer",−5.222 Log(M)
same,GI50,"[1]; UACC-62, Melanoma",−5.066 Log(M)
same,GI50,"[1]; UACC-257, Melanoma",−4.977 Log(M)
same,GI50,"[1]; UO-31, Renal Cancer",−5.335 Log(M)
same,% Activity,PRK1(h),91%
same,% Activity,CDK4/cyclinD3(h),74%
same,% Activity,PKCι(h),110%
same,IC50,ROCK-2,> 3 µM
